Entries after “also recorded” stand apart in the source; their conditions may differ.
How the values were obtained:
[1] = target: T1, 5-LO (Homo sapiens, UniProt P09917); assay: 5-LO product biosynthesis assay in stimulated HEK293 cells co-transfected with 5-LO and FLAP; assay type: cell-based; set-up: expressed in transfected cells; host or cells: HEK293 cells, stably co-transfected (pcDNA3.1 5-LO, pBUDCE4.1 FLAP); settings: compounds at 1 µM; result in words, compared with zileuton (1) and SAPE (2) at 1 µM; A23187 + arachidonic acid stimulation
T1 sequence (P09917 1-674): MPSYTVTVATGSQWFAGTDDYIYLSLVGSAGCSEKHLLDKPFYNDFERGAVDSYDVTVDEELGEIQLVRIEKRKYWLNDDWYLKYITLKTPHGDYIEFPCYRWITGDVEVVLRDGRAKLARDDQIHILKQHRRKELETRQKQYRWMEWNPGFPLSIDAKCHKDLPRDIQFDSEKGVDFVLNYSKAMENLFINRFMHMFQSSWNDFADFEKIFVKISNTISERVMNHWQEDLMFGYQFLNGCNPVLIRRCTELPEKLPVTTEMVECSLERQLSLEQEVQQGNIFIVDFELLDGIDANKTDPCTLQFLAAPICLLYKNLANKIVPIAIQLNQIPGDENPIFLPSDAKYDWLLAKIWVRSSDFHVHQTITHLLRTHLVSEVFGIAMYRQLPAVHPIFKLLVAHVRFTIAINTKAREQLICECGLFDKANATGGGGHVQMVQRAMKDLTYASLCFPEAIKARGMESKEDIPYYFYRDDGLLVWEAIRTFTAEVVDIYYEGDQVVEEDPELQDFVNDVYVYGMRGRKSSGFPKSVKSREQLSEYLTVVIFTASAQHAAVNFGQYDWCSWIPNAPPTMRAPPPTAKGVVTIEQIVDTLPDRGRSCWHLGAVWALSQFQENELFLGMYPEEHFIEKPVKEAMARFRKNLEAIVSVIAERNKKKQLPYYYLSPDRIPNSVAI
Protocol: All compounds, including known inhibitors zileuton (1) and SAPE (2), were assayed at 1 µM (Figure 1) for inhibition of LTs biosynthesis in stimulated HEK293 cells. These cells are stably transfected with human 5-LO and serves as a highly reproducible model of 5-LO product biosynthesis in which compounds can be preliminarily screened for anti-LTs activity before moving on to more complex systems. […] Esterification of benzo[b]thiophene-2-carboxylic acid to obtain benzyl to phenbutyl analogs (4–7) had no effect on the inhibitory activity of 5-LO. […] Even the addition of a hydroxyl (8) or methoxy (9) at para-position of the phenethyl group has no effect on the activity.
HEK293 cells were stably co-transfected with a pcDNA3.1 vector expressing 5-LO and a pBUDCE4.1 vector expressing 5-LO activating protein (FLAP) as previously reported. This represents a controlled model for the evaluation of 5-LO inhibition in a cellular system. For cell stimulation of 5-LO products, transfected HEK293 cells were collected following trypsinization, washed and the cell pellet was resuspended in Hank’s balanced salt solution (HBSS) (Lonza, Walkerville, MD) containing 1.6 mM CaCl2 at a concentration of 5 × 10^5 cells/mL. Cells were pre-incubated with each compound dissolved in DMSO at the indicated concentration for 5 min at 37 °C. Cells were then stimulated for 15 min at 37 °C with the addition of 10 µM calcium ionophore A23187 (Sigma-Aldrich, Oakville, ON, Canada) and 10 µM arachidonic acid (Cayman Chemical, Ann Arbor, MI). Stimulation was stopped and processed for RP-HPLC analysis as described previously.

[2] = Free radical scavenging activity assay (DPPH); settings: DPPH stable radical, 30 min, absorbance 517 nm; read-out: Free radical scavenging activity IC50 (µM) [SEM]
Protocol: A mechanism by which 5-LO activity can be inhibited is through reductive inhibition of the ferric non-heme iron of the enzyme. Interactions with stable free radicals provides an evaluation of the reducing ability of the test compounds. Radical scavenging activities of compounds tested in stimulated PMNL were assayed using 2,2-Diphenyl-1-picrylhydrazyl (DPPH) as a stable radical and are expressed as IC50 concentrations in Table 1.
The free radical scavenging activity of test compounds was measured as previously described using 2,2-diphenyl-1-picrylhydrazyl (DPPH) as a stable radical with slight modifications. DPPH (200 µL) in ethanol (250 µM) was mixed with 200 µL of the test compounds (1, 5, 10, 25, 50, 75, and 100 µg/mL). Each mixture was then shaken vigorously and held in the dark for 30 min at room temperature. The absorbance of DPPH at 517 nm was then measured. The radical scavenging activity was expressed in terms of % inhibition of DPPH absorbance:% Inhibition = (A control − A test)/A control) × 100 where A control is the absorbance of the control (DPPH solution without test compounds) and A test is the absorbance of the test sample (DPPH solution plus compounds). Ascorbic acid was used as a positive control. Data were expressed as mean ± SEM of three independent experiments, each performed in triplicate. IC50 values were calculated from a sigmoidal concentration-response curve-fitting model with a variable slope on GraphPad Prism software.

[3] = target: T1, 5-LO; assay: 5-LO products biosynthesis assay in human PMNL cells; assay type: cell-based; set-up: 5-LO is highly expressed in PMNL; endogenous in cells; host or cells: human PMNL from peripheral blood of healthy volunteers; settings: for Inhibition of the biosynthesis of 5-LO products in human PMNL cells: compounds at 1 µM, result in words, compared with zileuton (1), SAPE (2) or controls, thapsigargin stimulation
Excerpt: To further probe the inhibitory activity of compounds that approached the inhibitory activity of zileuton (1) and SAPE (2), compounds were selected for further screening in PMNL (Figure 6). 5-LO is highly expressed in PMNL and these cells are important physiological producers of LTB4 [17]. […] The presence of the hydroxyl group in position 4 and the methoxy groups in positions 3 and 5 seems to be an ideal combination for inhibition of 5-LO (Figure 6). These structural changes may influence the availability, cell permeation, or even the stability of inhibitors in PMNL versus HEK293 cells. […] Human PMNL were prepared from peripheral blood of healthy consenting volunteers as described. Human PMNL are an important source of 5-LO metabolites and are relevant primary inflammatory cells for the evaluation of the best compounds identified during the screening process. PMNL were suspended in HBSS containing 1.6 mM CaCl2 (10^7 cells/mL) and pre-incubated with compounds dissolved in DMSO for 5 min at 37 °C in the presence of 0.4 U/mL of adenosine deaminase (Sigma-Aldrich, Oakville, On, Canada). Cells were then stimulated for 15 min at 37 °C with 1 μM thapsigargin (Sigma-Aldrich). Reactions were stopped by the addition of 0.5 mL of cold MeOH:CH3CN (1:1) and 50 ng of PGB2 as internal standard and samples were stored at -20 °C until processing for RP-HPLC analysis as indicated above.

Row | SMILES | melting point [°C] | Inhibition of the biosynthesis of 5-LO products in stimulated HEK293 cells [1] | IC50 [2] [µM] | IC50 ([3]; 95% confidence interval: 0.25–0.53 μM, read-out: IC50 for the inhibition of 5-LO product biosynthesis in PMNL) [µM] | Inhibition of the biosynthesis of 5-LO products in human PMNL cells [3]
1 | O=C(/C=C/c1ccccc1)c1cc2ccccc2s1 [Compound 11, (E)-1-(1-Benzothiophen-2-yl)-3-phenyl-2-propen-1-one] | 118 to 120 | less active than SAPE (2); also recorded: non-significantly different than Zileuton (1) | – | – | –
2 | O=C(OCCc1ccccc1)c1cc2ccccc2s1 [Compound 5, Phenethyl 1-benzothiophene-2-carboxylate] | 61 to 62 | – | – | – | –
3 | COc1cc(/C=C/C(=O)c2cc3ccccc3s2)cc(OC)c1 [Compound 20] | – | not-significantly different than zileuton (1) | – | – | –
4 | COc1cc(/C=C/C(=O)c2cc3ccccc3s2)cc(OC)c1O [Compound 28] | – | equipotent to zileuton (1); also recorded: non-significantly different than zileuton (1) and SAPE (2) | 48.9 | 0.37 | three times as active as zileuton (1); also recorded: exceeding zileuton’s (1) inhibitory capacity in PMNL by more than three times
5 | COc1cc(/C=C/C(=O)c2cc3ccccc3s2)cc(O)c1OC [Compound 31] | – | inactive; also recorded: less active than compound 28 | 6.6 | – | total loss of activity; also recorded: inactive
6 | Cc1cc(/C=C/C(=O)c2cc3ccccc3s2)cc(C)c1O [Compound 29] | – | does not seem to be favorable for the inhibition of 5-LO products | – | – | –
7 | COc1ccc(/C=C/C(=O)c2cc3ccccc3s2)cc1O [Compound 17] | – | – | 64.7 | – | less active than zileuton (1) and SAPE (2)
8 | COc1ccc(/C=C/C(=O)N(O)C(N)=O)cc1O [Compound 34, 1-Hydroxy-1-((E)-3-(3-hydroxy-4-methoxyphenyl)acryloyl)urea] | 170 to 172 | inactive | – | – | –
9 | COc1cc(/C=C/C(=O)OCCc2ccccc2)cc(OC)c1O [SAPE (2), sinapic acid phenethyl ester, reference compound] | – | – | 25.4 | – | –
10 | CC(c1cc2ccccc2s1)N(O)C(N)=O (stereo not drawn) [Zileuton (1), zileuton] | – | – | > 100 | – | –
11 | NC(=O)N(O)C(=O)c1ccccc1 [Compound 38, 1-Hydroxy-1-(benzoyl)urea] | 127 to 129 | inactive | – | – | –
12 | COc1cc(OC)c(/C=C/C(=O)c2cc3ccccc3s2)c(OC)c1 [Compound 27] | – | equipotent to Zileuton (1) | 6.9 | – | complete loss of the 5-LO inhibition
13 | NC(=O)N(O)C(=O)/C=C/c1ccccc1 [Compound 33, 1-Hydroxy-1-((E)-3-phenylacryloyl)urea] | 130 to 132 | inactive | – | – | –
14 | COc1ccc(/C=C/C(=O)N(O)C(N)=O)cc1OC [Compound 36] | – | inactive | – | – | –
15 | NC(=O)N(O)C(=O)CCc1ccccc1 [Compound 40] | – | inactive | – | – | –
16 | O=C(/C=C/c1ccc(O)cc1)c1cc2ccccc2s1 [Compound 16] | – | non-significantly different than Zileuton (1) | 68.9 | – | neither compound showed significant inhibition compared to controls
17 | COc1cc(O)cc(OC)c1/C=C/C(=O)c1cc2ccccc2s1 [Compound 30] | – | less active than compound 28 | – | – | –
18 | COc1cc(/C=C/C(=O)N(O)C(N)=O)ccc1O [Compound 35] | – | inactive | – | – | –
19 | COc1cc(/C=C/C(=O)c2cc3ccccc3s2)cc(OC)c1OC [Compound 26] | – | inactive | – | – | –
20 | COc1cc(/C=C/C(=O)c2cc3ccccc3s2)ccc1O [Compound 18] | – | not-significantly different than zileuton (1) | 68.8 | – | less active than zileuton (1) and SAPE (2)
21 | COc1cc(/C=C/C(=O)N(O)C(N)=O)cc(OC)c1O [Compound 37] | – | inactive | 13.3 | – | inactivity; also recorded: inactive
22 | NC(=O)N(O)C(=O)Cc1ccccc1 [Compound 39, 1-Hydroxy-1-(2-phenylacetyl)urea] | 133 to 135 | inactive | – | – | –
23 | O=C1O[C@H]([C@@H](O)CO)C(O)=C1O [Vitamin C, Ascorbic acid, reference compound] | – | – | 21.8 | – | –

From article PMC7587396, “New Zileuton-Hydroxycinnamic Acid Hybrids: Synthesis and Structure-Activity Relationship towards 5-Lipoxygenase Inhibition” (Molecules, 2020)
